Several values for one entry are separate records, joined by “and”; a condition that tells them apart may be missing. Equal entries are not always repeated.
Experiments:
[1] = tested on: BGLT3 RNA in HUDEP-2 cells; assay: RT-qPCR of BGLT3 in HUDEP-2 cells; type: cell-based, human
How it was run: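 Total RNA reverse-transcribed to cDNA, then target transcripts quantified by SYBR Green real-time qPCR. Expression normalized to GAPDH as reference gene.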

GLP = biological target: T1, GLP (Homo sapiens, UniProt Q9H9B1); assay: biochemical
T1 sequence (Q9H9B1 1-1298): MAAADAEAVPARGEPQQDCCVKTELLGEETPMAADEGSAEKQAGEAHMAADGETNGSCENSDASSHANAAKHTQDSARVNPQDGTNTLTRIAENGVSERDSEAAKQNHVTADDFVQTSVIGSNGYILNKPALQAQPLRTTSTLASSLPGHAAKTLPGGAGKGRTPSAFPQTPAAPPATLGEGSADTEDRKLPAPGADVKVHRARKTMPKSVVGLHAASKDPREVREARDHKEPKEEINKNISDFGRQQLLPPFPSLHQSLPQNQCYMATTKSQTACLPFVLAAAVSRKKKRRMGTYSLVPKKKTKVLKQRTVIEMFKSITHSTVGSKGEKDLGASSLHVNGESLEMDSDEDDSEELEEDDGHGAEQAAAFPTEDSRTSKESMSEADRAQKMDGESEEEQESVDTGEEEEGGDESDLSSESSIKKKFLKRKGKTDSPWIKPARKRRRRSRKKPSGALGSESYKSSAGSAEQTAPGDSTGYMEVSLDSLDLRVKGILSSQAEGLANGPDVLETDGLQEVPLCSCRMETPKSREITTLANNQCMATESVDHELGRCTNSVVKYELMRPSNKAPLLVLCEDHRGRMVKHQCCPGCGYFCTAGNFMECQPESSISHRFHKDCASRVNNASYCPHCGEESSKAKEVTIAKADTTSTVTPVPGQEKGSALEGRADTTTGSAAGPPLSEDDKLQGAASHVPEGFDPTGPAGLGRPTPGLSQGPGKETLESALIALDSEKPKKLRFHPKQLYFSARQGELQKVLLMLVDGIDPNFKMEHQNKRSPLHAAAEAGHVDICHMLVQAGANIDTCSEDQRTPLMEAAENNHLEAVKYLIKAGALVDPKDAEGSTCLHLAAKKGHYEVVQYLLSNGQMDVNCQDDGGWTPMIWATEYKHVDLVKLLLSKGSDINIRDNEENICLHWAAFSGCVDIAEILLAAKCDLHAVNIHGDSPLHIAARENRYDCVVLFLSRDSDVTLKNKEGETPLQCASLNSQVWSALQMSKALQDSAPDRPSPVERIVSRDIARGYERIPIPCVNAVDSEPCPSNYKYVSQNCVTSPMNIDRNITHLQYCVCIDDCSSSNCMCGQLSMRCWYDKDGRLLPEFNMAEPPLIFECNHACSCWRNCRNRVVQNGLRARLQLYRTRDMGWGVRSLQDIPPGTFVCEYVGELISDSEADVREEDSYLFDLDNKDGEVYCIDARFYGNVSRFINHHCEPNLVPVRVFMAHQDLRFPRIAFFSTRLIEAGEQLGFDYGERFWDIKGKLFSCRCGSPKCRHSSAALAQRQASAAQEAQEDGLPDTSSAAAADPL

NC(=O)NO [Hydroxyurea, hydroxyurea]
BGLT3 expression in HUDEP-2 cells treated with hydroxyurea ([1]; 50 μM, relative to DMSO = 1, replicate values): 1.625 and 1.206 and 1.616
BGLT3 expression in HUDEP-2 cells treated with hydroxyurea ([1]; 100 μM, relative to DMSO = 1, replicate values): 1.87 and 1.919 and 2.091
BGLT3 expression in HUDEP-2 cells treated with hydroxyurea ([1]; 200 μM, relative to DMSO = 1, replicate values): 2.757 and 2.815 and 4.093
BGLT3 expression ([1]; HUDEP-2): promoted BGLT3 expression
BGLT3 expression ([1]; Left panel, Parental HUDEP-2 cells treated with hydroxyurea, Parental DMSO = 1, 3 replicates): 2.685 and 2.462 and 3.265
BGLT3 expression ([1]; Right panel, Parental HUDEP-2 cells treated with hydroxyurea, DMSO of the same cells = 1, 3 replicates): 2.685 and 2.462 and 3.265

Cc1c(C(=O)NC(CCC2CC2)C(=O)Nc2ccc(C#N)cc2)[nH]c2c1C(=O)CC(C)(C)C2 (centres unmarked) [RK-701]
BGLT3 expression ([1]; HUDEP-2): induced BGLT3 expression
BGLT3 expression ([1]; parental HUDEP-2 cells treated with RK-701, parental DMSO = 1, replicates 1a-3b): 3.454 and 1.802 and 1.321 and 3.995 and 3.605 and 4.281
BGLT3 expression in HUDEP-2 cells treated with RK-701 and decitabine ([1]; single agents or combination, relative to DMSO = 1, replicate values): 2.098 and 1.983 and 1.578
IC50 (GLP): 48.6 nM and 57.7 nM

Nc1ncnc2c1ncn2[C@@H]1O[C@H](CSCC[C@H](N)C(=O)O)[C@@H](O)[C@H]1O [SAH, S-(5'-Adenosyl)-L-homocysteine, reference compound]
IC50 (GLP): 3860 nM
